# In ChEMBL document CHEMBL1152576, “E-Combretastatin and E-resveratrol structural modifications: antimicrobial and cancer cell growth inhibitory beta-E-nitrostyrenes” (Bioorg Med Chem, 2009):
# pIC50: −log10 of the molar value. Calls of active or inactive are those of the source. The calls are words filed in the database; no cut-off is given here.
# Tested on: Cryptococcus neoformans
# Assay: Antimicrobial activity against Cryptococcus neoformans ATCC 90112 assessed clear zone in inhibition per disk by CLSI disk diffusion susceptibility assay
# Assay type: functional
# Settings: not given
row,Compound,MIC
1,CCOc1ccc(/C=C/[N+](=O)[O-])cc1,1.56 µg
2,COc1cc(/C=C/[N+](=O)[O-])cc(O[Si](C)(C)C(C)(C)C)c1OC,25 µg
3,O=[N+]([O-])/C=C/c1ccc(OP(=O)(OCc2ccccc2)OCc2ccccc2)cc1,25 µg

# Tested on: Stenotrophomonas maltophilia
# Assay: Antimicrobial activity against Stenotrophomonas maltophilia ATCC 13637 assessed clear zone in inhibition per disk by CLSI disk diffusion susceptibility assay
# Assay type: functional
# Settings: not given
row,Compound,MIC
1,CCOc1ccc(/C=C/[N+](=O)[O-])cc1,>100 µg
2,COc1cc(/C=C/[N+](=O)[O-])cc(O[Si](C)(C)C(C)(C)C)c1OC,>100 µg
3,O=[N+]([O-])/C=C/c1ccc(OP(=O)(OCc2ccccc2)OCc2ccccc2)cc1,>100 µg

# Tested on: SF-268
# Assay: Cytotoxicity against human SF268 cells after 48 hrs by sulforhodamine B assay
# Assay type: functional
# Settings: not given
row,Compound,GI50
1,COc1cc(/C=C/[N+](=O)[O-])cc(O[Si](C)(C)C(C)(C)C)c1OC,inactive

# Same assay, conditions: SF-268, 48 h
row,Compound,GI50
1,CCOc1ccc(/C=C/[N+](=O)[O-])cc1,1.8 µg/mL
2,O=[N+]([O-])/C=C/c1ccc(OP(=O)(OCc2ccccc2)OCc2ccccc2)cc1,> 10 µg/mL

# Tested on: SF-295
# Assay: Cytotoxicity against human SF295 cells after 48 hrs by sulforhodamine B assay
# Assay type: functional
# Settings: not given
row,Compound,GI50
1,CCOc1ccc(/C=C/[N+](=O)[O-])cc1,inactive
2,O=[N+]([O-])/C=C/c1ccc(OP(=O)(OCc2ccccc2)OCc2ccccc2)cc1,inactive

# Same assay, conditions: SF-295, 48 h
row,Compound,GI50
1,COc1cc(/C=C/[N+](=O)[O-])cc(O[Si](C)(C)C(C)(C)C)c1OC,> 10 µg/mL

# Tested on: Enterobacter cloacae
# Assay: Antimicrobial activity against Enterobacter cloacae ATCC 13047 assessed clear zone in inhibition per disk by CLSI disk diffusion susceptibility assay
# Assay type: functional
# Settings: not given
row,Compound,MIC
1,CCOc1ccc(/C=C/[N+](=O)[O-])cc1,>100 µg
2,COc1cc(/C=C/[N+](=O)[O-])cc(O[Si](C)(C)C(C)(C)C)c1OC,>100 µg
3,O=[N+]([O-])/C=C/c1ccc(OP(=O)(OCc2ccccc2)OCc2ccccc2)cc1,>100 µg

# Tested on: Escherichia coli
# Assay: Antimicrobial activity against Escherichia coli ATCC 25922 assessed clear zone in inhibition per disk by CLSI disk diffusion susceptibility assay
# Assay type: functional
# Settings: not given
row,Compound,MIC
1,CCOc1ccc(/C=C/[N+](=O)[O-])cc1,>100 µg
2,COc1cc(/C=C/[N+](=O)[O-])cc(O[Si](C)(C)C(C)(C)C)c1OC,>100 µg
3,O=[N+]([O-])/C=C/c1ccc(OP(=O)(OCc2ccccc2)OCc2ccccc2)cc1,>100 µg

# Tested on: A498
# Assay: Cytotoxicity against human A498 cells after 48 hrs by sulforhodamine B assay
# Assay type: functional
# Settings: not given
row,Compound,GI50
1,CCOc1ccc(/C=C/[N+](=O)[O-])cc1,inactive
2,COc1cc(/C=C/[N+](=O)[O-])cc(O[Si](C)(C)C(C)(C)C)c1OC,inactive
3,O=[N+]([O-])/C=C/c1ccc(OP(=O)(OCc2ccccc2)OCc2ccccc2)cc1,inactive

# Tested on: Neisseria gonorrhoeae
# Assay: Antimicrobial activity against Neisseria gonorrhoeae ATCC 49226 assessed clear zone of inhibition measured per disk by CLSI disk diffusion susceptibility assay
# Assay type: functional
# Settings: not given
row,Compound,MIC
1,CCOc1ccc(/C=C/[N+](=O)[O-])cc1,0.78 µg
2,COc1cc(/C=C/[N+](=O)[O-])cc(O[Si](C)(C)C(C)(C)C)c1OC,3.12 µg
3,O=[N+]([O-])/C=C/c1ccc(OP(=O)(OCc2ccccc2)OCc2ccccc2)cc1,0.78 µg

# Tested on: Candida albicans
# Assay: Antimicrobial activity against Candida albicans ATCC 90028 assessed clear zone in inhibition per disk by CLSI disk diffusion susceptibility assay
# Assay type: functional
# Settings: not given
row,Compound,MIC
1,CCOc1ccc(/C=C/[N+](=O)[O-])cc1,3.12 µg
2,COc1cc(/C=C/[N+](=O)[O-])cc(O[Si](C)(C)C(C)(C)C)c1OC,>100 µg
3,O=[N+]([O-])/C=C/c1ccc(OP(=O)(OCc2ccccc2)OCc2ccccc2)cc1,>100 µg

# Tested on: P388
# Assay: Cytotoxicity against mouse P388 cells after 48 hrs by sulforhodamine B assay
# Assay type: functional
# Settings: P388, 48 h, read-out: ED50 (the source's name)
row,Compound,EC50
1,CCOc1ccc(/C=C/[N+](=O)[O-])cc1,3.8 µg/mL
2,COc1cc(/C=C/[N+](=O)[O-])cc(O[Si](C)(C)C(C)(C)C)c1OC,32.6 µg/mL
3,O=[N+]([O-])/C=C/c1ccc(OP(=O)(OCc2ccccc2)OCc2ccccc2)cc1,7 µg/mL

# Tested on: Staphylococcus aureus
# Assay: Antimicrobial activity against Staphylococcus aureus ATCC 29213 assessed clear zone in inhibition per disk by CLSI disk diffusion susceptibility assay
# Assay type: functional
# Settings: not given
row,Compound,MIC
1,CCOc1ccc(/C=C/[N+](=O)[O-])cc1,25 µg
2,COc1cc(/C=C/[N+](=O)[O-])cc(O[Si](C)(C)C(C)(C)C)c1OC,3.12 µg
3,O=[N+]([O-])/C=C/c1ccc(OP(=O)(OCc2ccccc2)OCc2ccccc2)cc1,3.12 µg

# Tested on: BXPC-3
# Assay: Cytotoxicity against human BxPC3 cells after 48 hrs by sulforhodamine B assay
# Assay type: functional
# Settings: BXPC-3, 48 h
row,Compound,GI50
1,CCOc1ccc(/C=C/[N+](=O)[O-])cc1,1.2 µg/mL
2,COc1cc(/C=C/[N+](=O)[O-])cc(O[Si](C)(C)C(C)(C)C)c1OC,> 10 µg/mL
3,O=[N+]([O-])/C=C/c1ccc(OP(=O)(OCc2ccccc2)OCc2ccccc2)cc1,> 10 µg/mL

# Tested on: Enterococcus faecalis
# Assay: Antimicrobial activity against Enterococcus faecalis ATCC 29212 assessed clear zone in inhibition per disk by CLSI disk diffusion susceptibility assay
# Assay type: functional
# Settings: not given
row,Compound,MIC
1,CCOc1ccc(/C=C/[N+](=O)[O-])cc1,50 µg
2,COc1cc(/C=C/[N+](=O)[O-])cc(O[Si](C)(C)C(C)(C)C)c1OC,3.12 µg
3,O=[N+]([O-])/C=C/c1ccc(OP(=O)(OCc2ccccc2)OCc2ccccc2)cc1,6.25 µg

# Tested on: MCF7
# Assay: Cytotoxicity against human MCF7 cells after 48 hrs by sulforhodamine B assay
# Assay type: functional
# Settings: not given
row,Compound,GI50
1,COc1cc(/C=C/[N+](=O)[O-])cc(O[Si](C)(C)C(C)(C)C)c1OC,inactive

# Same assay, conditions: MCF7, 48 h
row,Compound,GI50
1,CCOc1ccc(/C=C/[N+](=O)[O-])cc1,1.1 µg/mL
2,O=[N+]([O-])/C=C/c1ccc(OP(=O)(OCc2ccccc2)OCc2ccccc2)cc1,> 10 µg/mL

# Tested on: NCI-H460
# Assay: Cytotoxicity against human NCI-H460 cells after 48 hrs by sulforhodamine B assay
# Assay type: functional
# Settings: NCI-H460, 48 h
row,Compound,GI50
1,CCOc1ccc(/C=C/[N+](=O)[O-])cc1,1.9 µg/mL
2,COc1cc(/C=C/[N+](=O)[O-])cc(O[Si](C)(C)C(C)(C)C)c1OC,> 10 µg/mL
3,O=[N+]([O-])/C=C/c1ccc(OP(=O)(OCc2ccccc2)OCc2ccccc2)cc1,> 10 µg/mL

# Tested on: not listed separately
# Assay: Inhibition of tubulin polymerization
# Settings: not given
row,Compound,pIC50
1,CCOc1ccc(/C=C/[N+](=O)[O-])cc1,5.26
2,COc1cc(/C=C/[N+](=O)[O-])cc(O[Si](C)(C)C(C)(C)C)c1OC,4.92
3,O=[N+]([O-])/C=C/c1ccc(OP(=O)(OCc2ccccc2)OCc2ccccc2)cc1,5.00

# Tested on: Streptococcus pneumoniae
# Assay: Antimicrobial activity against Streptococcus pneumoniae ATCC 6303 assessed clear zone in inhibition per disk by CLSI disk diffusion susceptibility assay
# Assay type: functional
# Settings: not given
row,Compound,MIC
1,CCOc1ccc(/C=C/[N+](=O)[O-])cc1,12.5 µg
2,COc1cc(/C=C/[N+](=O)[O-])cc(O[Si](C)(C)C(C)(C)C)c1OC,3.12 µg
3,O=[N+]([O-])/C=C/c1ccc(OP(=O)(OCc2ccccc2)OCc2ccccc2)cc1,>100 µg

# Tested on: Micrococcus luteus
# Assay: Antimicrobial activity against Micrococcus luteus Presque Isle 456 assessed clear zone in inhibition per disk by CLSI disk diffusion susceptibility assay
# Assay type: functional
# Settings: not given
row,Compound,MIC
1,CCOc1ccc(/C=C/[N+](=O)[O-])cc1,50 µg
2,COc1cc(/C=C/[N+](=O)[O-])cc(O[Si](C)(C)C(C)(C)C)c1OC,1.56 µg
3,O=[N+]([O-])/C=C/c1ccc(OP(=O)(OCc2ccccc2)OCc2ccccc2)cc1,6.25 µg

# Tested on: DU-145
# Assay: Cytotoxicity against human DU145 cells after 48 hrs by sulforhodamine B assay
# Assay type: functional
# Settings: DU-145, 48 h
row,Compound,GI50
1,CCOc1ccc(/C=C/[N+](=O)[O-])cc1,2.2 µg/mL
2,COc1cc(/C=C/[N+](=O)[O-])cc(O[Si](C)(C)C(C)(C)C)c1OC,> 10 µg/mL
3,O=[N+]([O-])/C=C/c1ccc(OP(=O)(OCc2ccccc2)OCc2ccccc2)cc1,> 10 µg/mL

# Tested on: SK-MEL-5
# Assay: Cytotoxicity against human SK-MEL-5 cells after 48 hrs by sulforhodamine B assay
# Assay type: functional
# Settings: not given
row,Compound,GI50
1,CCOc1ccc(/C=C/[N+](=O)[O-])cc1,inactive
2,COc1cc(/C=C/[N+](=O)[O-])cc(O[Si](C)(C)C(C)(C)C)c1OC,inactive
3,O=[N+]([O-])/C=C/c1ccc(OP(=O)(OCc2ccccc2)OCc2ccccc2)cc1,inactive

# Tested on: KM-20L2
# Assay: Cytotoxicity against human KM20L2 cells after 48 hrs by sulforhodamine B assay
# Assay type: functional
# Settings: KM-20L2, 48 h
row,Compound,GI50
1,CCOc1ccc(/C=C/[N+](=O)[O-])cc1,2.4 µg/mL
2,COc1cc(/C=C/[N+](=O)[O-])cc(O[Si](C)(C)C(C)(C)C)c1OC,> 10 µg/mL
3,O=[N+]([O-])/C=C/c1ccc(OP(=O)(OCc2ccccc2)OCc2ccccc2)cc1,> 10 µg/mL

# Tested on: OVCAR-3
# Assay: Cytotoxicity against human OVCAR-3 cells after 48 hrs by sulforhodamine B assay
# Assay type: functional
# Settings: not given
row,Compound,GI50
1,CCOc1ccc(/C=C/[N+](=O)[O-])cc1,inactive
2,O=[N+]([O-])/C=C/c1ccc(OP(=O)(OCc2ccccc2)OCc2ccccc2)cc1,inactive

# Same assay, conditions: OVCAR-3, 48 h
row,Compound,GI50
1,COc1cc(/C=C/[N+](=O)[O-])cc(O[Si](C)(C)C(C)(C)C)c1OC,> 10 µg/mL
